The test has as its system gene encoding relaxin. Kind of test: AFFYMETRIX chicken genome array, oviduct RNA of hens fed selenium: relaxin. The test is classed as in vivo. The following applies: 0.3 ppm selenium in diet, over forty weeks, relative to selenium deficient animals. An excerpt: In an effort to examine possible benefits of administration of selenium on female reproductive performance, hens were randomly selected from a broiler-breeder flock housed at Coldstream poultry facility, University of Kentucky. The hens were maintained on a selenium-deficient diet from 6 weeks of age until 22 weeks of age and were then placed on the following dietary treatments for over forty weeks until the time of sampling: 1) Control, selenium-deficient, Torula yeast-based diet (0.02 ppm selenium); 2) The control diet supplemented with 0.3 ppm selenium from sodium selenite; and 3) The control diet supplemented with 0.3 ppm selenium from SEL-PLEX. Hens were taken from each of the three experimental groups, their oviducts removed, flash-frozen and stored at −80° C. prior to RNA isolation.
Labeled RNA preparations from oviduct were hybridized with AFFYMETRIX chicken genome arrays containing 38,000 probe sets using standard methodology.

With `O=[Se](O)O` [sodium selenite], the “relaxin gene expression, upregulation” value is on record as “no significant effect”.
